From US8440724B2, “Inhibiting neurotransmitter reuptake” (Mayo Foundation for Medical Education and Research, priority 2008, dated 2013)
Read-outs that look alike come from different tables or passages of the source.

Key:
[1] = biological target: T1, rat dopamine transporter, synaptosomal preparations (Rattus norvegicus, UniProt P23977); test: Inhibition of [3H]DA reuptake in rat brain synaptosomes (striatum); format: biochemical
T1 construct: and striatal tissues for transport of dopamine; from tissue; host or cells: rat striatum synaptosomes (male Sprague-Dawley)
T1 sequence (P23977 whole entry): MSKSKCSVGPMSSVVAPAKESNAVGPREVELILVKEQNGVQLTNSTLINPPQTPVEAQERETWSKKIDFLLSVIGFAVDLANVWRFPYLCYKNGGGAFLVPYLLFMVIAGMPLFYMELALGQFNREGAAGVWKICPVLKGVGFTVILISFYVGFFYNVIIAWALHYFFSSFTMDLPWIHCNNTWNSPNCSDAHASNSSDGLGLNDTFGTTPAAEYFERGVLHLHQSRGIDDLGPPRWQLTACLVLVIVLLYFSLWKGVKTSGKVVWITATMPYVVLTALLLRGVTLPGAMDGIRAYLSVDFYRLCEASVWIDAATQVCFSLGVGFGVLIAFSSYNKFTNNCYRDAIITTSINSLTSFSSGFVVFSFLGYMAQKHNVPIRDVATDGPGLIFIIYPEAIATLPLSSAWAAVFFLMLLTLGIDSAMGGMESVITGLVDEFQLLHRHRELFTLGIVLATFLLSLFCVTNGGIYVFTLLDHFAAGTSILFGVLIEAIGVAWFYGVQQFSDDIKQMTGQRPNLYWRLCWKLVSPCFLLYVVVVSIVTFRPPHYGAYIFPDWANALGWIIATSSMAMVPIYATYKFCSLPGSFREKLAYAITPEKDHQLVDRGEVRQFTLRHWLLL
Procedure: (§1) The dissected tissues were separately homogenized in 20 volumes (cortical) or 40 volumes (striatal) of ice-cold, oxygenated HEPES buffer 0.32 M sucrose containing 11 mM glucose (pH 7.4) in a glass Potter-Elvehjem homogenizer with Teflon® pestle (8 strokes, 900 rpm). The homogenates were centrifuged at 1,000×g for 10 minutes. The resulting supernatant was decanted and further centrifuged at 20,000×g for 20 minutes at 4° C. […] The synaptosomal protein concentration was determined by using the BCA assay (Pierce Biotechnology Inc, Rockford, Ill.), according to the manufacturer's instructions. Synaptosomal protein (1.0-2.5 mg) was suspended in 1 mL oxygenated incubation buffer as defined above. Test amine compound was pre-incubated with the synaptosomal preparation for 30 minutes at 37° C. in a shaking water bath (80 oscillations/minute).

[2] = biological target: T2, rat norepinephrine transport, synaptosomal preparations (Rattus norvegicus, UniProt Q63380); test: Inhibition of [3H]NE reuptake in rat brain synaptosomes (occipital cortex); format: biochemical
T2 construct: from tissue; host or cells: rat occipital cortex synaptosomes (male Sprague-Dawley)
T2 sequence (Q63380 1-617): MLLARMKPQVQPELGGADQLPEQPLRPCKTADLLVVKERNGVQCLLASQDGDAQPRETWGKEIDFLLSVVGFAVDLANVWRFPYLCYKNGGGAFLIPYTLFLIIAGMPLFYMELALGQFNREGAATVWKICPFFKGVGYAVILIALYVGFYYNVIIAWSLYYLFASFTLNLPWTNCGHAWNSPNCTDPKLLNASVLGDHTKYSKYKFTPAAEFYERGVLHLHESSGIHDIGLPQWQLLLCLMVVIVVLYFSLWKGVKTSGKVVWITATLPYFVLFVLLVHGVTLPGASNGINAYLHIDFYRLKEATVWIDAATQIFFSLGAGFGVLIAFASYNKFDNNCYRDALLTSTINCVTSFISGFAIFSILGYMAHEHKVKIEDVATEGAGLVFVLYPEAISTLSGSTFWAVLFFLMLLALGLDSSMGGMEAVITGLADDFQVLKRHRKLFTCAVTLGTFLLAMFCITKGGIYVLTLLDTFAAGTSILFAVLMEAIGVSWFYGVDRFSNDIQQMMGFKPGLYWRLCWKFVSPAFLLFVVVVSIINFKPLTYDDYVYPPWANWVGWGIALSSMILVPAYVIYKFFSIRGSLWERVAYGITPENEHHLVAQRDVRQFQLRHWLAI
Procedure: as §1

male C57BL/6J mice = test: Tail suspension test (TST) in mice; format: in vivo, mouse; conditions: for Duration of immobility in TST vs saline: 5 mg/kg IP, FIG. 10E
Procedure: When mice are suspended by their tail, there is an initial period of agitation, followed by immobility. This test identifies antidepressant compounds, which decrease the duration of immobility.
Test compounds were prepared by formulating the compounds with a pharmaceutically acceptable carrier such as saline. […] Each mouse was then subjected to the tail-suspension test (TST). Each mouse (n>3) was suspended by its tail 45 cm above the table top with the use of adhesive tape placed 1 cm from the tip of its tail. Behavior was scored every 5 seconds throughout the 6-minute test as either mobile or immobile (FIG. 10A-D) or total duration of immobility during the 6-minute test (FIGS. 10E and 10H). Mice were considered immobile only when hanging passively and completely motionless. Scores for each behavior were expressed as total counts per 6-minute session.

[3] = test system: human serotonin, norepinephrine and dopamine transporters; test: Transport into cells expressing human transporters: rank order of potency, comparison with rat; format: cell-based; conditions: for Potency (rank order, transport into cells expressing human transporters): from Ki values, S = 5-HT, N = NE, D = DA; for Species selectivity: blocking transport by human vs rat serotonin and dopamine transporters: human transporters in cells vs rat synaptosomal preparations (Tables 3 and 4)
[4] = biological target: human serotonin transporter (Homo sapiens, UniProt P31645); test: Inhibition of [3H]5-HT transport into HEK-293 cells expressing the human transporter
Sequence of human serotonin transporter (P31645 whole entry): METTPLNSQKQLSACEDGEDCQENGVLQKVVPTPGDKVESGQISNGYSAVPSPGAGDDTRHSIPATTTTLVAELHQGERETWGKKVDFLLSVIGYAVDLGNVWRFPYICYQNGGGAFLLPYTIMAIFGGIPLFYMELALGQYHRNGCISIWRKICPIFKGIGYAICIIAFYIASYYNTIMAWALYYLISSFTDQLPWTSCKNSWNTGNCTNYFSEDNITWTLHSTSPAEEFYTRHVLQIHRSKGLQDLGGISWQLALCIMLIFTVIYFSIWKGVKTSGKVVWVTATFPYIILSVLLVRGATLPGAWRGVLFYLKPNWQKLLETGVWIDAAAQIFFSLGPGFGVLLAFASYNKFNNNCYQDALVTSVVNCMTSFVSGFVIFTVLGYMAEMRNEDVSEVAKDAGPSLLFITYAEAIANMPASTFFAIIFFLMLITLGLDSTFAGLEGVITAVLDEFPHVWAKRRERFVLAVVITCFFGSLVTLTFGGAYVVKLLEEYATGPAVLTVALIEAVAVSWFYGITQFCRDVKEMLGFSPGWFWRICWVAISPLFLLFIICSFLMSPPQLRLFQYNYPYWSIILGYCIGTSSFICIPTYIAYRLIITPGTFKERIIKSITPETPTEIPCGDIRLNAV

[5] = biological target: T3, human serotonin transporter (hSERT) (Homo sapiens, UniProt P31645); test: Radioligand binding to cloned hSERT, [3H]citalopram, HEK-293 cell membranes; conditions: for Binding at hSERT compared to PRC200-SS: in words
T3 construct: expressed in transfected cells; host or cells: HEK-293, stably transfected
T3 sequence (P31645 whole entry): as above

hSERT, hNET, hDAT = test: Human transporter binding: rank order and range of potency over the three transporters; conditions: for Potency (rank-order of potency of binding; S = hSERT, N = hNET, D = hDAT): from KD values; for Potency Range (difference between most potent and least potent binding): ratio of KD over hSERT, hNET, hDAT
From the text: The program was modified to calculate the Hill coefficient (nH). Data are presented as geometric mean±S.E.M. of at least three independent experiments. One-component models and two-component models were compared using the root mean square error of each fit and the F test.

[6] = biological target: human dopamine transporter (Homo sapiens, UniProt Q01959); test: Inhibition of [3H]DA transport into HEK-293 cells expressing the human transporter
Sequence of human dopamine transporter (Q01959 whole entry): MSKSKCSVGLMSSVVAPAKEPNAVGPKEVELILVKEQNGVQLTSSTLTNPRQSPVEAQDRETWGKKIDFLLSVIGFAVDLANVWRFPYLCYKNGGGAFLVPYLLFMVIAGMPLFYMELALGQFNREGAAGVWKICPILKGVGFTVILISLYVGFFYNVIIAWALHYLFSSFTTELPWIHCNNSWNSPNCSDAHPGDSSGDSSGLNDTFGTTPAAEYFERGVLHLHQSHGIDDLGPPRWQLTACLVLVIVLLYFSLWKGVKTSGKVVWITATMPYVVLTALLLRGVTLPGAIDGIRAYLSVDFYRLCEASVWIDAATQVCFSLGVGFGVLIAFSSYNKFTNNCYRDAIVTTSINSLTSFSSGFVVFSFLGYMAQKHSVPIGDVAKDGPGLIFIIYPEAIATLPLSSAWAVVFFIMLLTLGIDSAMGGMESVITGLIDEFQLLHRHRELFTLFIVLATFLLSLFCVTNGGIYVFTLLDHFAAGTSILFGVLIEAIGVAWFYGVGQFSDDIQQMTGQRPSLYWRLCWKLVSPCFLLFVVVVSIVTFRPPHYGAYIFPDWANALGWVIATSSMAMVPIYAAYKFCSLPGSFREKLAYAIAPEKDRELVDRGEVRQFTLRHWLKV

[7] = biological target: T4, rat serotonin transporter, synaptosomal preparations (Rattus norvegicus, UniProt P31652); test: Inhibition of [3H]5-HT reuptake in rat brain synaptosomes (frontal cortex); format: biochemical
T4 construct: from tissue; host or cells: rat frontal cortex synaptosomes (male Sprague-Dawley)
T4 sequence (P31652 whole entry): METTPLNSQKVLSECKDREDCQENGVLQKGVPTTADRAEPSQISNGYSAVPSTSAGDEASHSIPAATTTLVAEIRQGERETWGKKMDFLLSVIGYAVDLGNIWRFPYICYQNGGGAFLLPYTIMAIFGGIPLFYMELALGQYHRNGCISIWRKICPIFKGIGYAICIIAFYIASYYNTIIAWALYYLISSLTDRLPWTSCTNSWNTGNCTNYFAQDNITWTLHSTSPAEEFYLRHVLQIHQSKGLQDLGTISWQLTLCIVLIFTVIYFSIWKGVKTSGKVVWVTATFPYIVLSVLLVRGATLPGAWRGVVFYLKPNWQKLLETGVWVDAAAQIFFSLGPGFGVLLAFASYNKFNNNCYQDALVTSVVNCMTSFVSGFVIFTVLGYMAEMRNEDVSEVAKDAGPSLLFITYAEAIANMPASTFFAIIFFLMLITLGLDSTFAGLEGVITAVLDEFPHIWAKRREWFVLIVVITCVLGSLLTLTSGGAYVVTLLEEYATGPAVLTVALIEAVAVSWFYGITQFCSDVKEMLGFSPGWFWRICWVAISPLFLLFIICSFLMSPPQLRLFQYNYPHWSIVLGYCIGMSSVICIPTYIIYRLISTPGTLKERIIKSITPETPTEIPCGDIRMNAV
Procedure: as §1

[8] = biological target: human norepinephrine transporter (Homo sapiens, UniProt P23975); test: Inhibition of [3H]NE transport into HEK-293 cells expressing the human transporter
Sequence of human norepinephrine transporter (P23975 whole entry): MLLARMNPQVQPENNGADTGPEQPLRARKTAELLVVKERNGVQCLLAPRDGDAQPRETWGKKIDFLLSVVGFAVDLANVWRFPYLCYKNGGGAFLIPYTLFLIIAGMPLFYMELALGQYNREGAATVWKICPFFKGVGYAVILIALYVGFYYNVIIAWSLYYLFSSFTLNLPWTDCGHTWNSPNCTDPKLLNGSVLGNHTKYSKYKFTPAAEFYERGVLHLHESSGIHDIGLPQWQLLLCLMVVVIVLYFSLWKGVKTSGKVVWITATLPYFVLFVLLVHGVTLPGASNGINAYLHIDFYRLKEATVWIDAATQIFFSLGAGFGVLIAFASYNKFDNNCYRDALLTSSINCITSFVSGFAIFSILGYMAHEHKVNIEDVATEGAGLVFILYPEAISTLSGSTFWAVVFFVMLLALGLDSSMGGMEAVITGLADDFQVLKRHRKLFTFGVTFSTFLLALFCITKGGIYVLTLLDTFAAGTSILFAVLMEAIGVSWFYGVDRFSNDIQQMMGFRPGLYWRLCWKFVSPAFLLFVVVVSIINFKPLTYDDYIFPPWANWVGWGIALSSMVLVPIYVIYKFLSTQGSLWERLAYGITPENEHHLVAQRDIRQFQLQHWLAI

[9] = Geometric Mean ± SEM, rat brain synaptosomes, read-out: Inhibitor Constant (Ki), DA transport
[10] = mice, 5 and 10 mg/kg IP, 30 minutes before testing
[11] = Geometric Mean ± SEM, rat brain synaptosomes, read-out: Inhibitor Constant (Ki), NE transport
[12] = Geometric Mean ± SEM, HCl salts, read-out: Equilibrium Dissociation Constant (KD) for Transporter Binding, hSERT (S)
[13] = Geometric Mean ± SEM, rat brain synaptosomes, read-out: Inhibitor Constant (Ki), 5HT transport

SMILES | Ki [1, 9] [µM] | Potency (rank order, transport into cells expressing human transporters) [3] | Ki [4] [µM] | Kd [5] [µM] | Binding at hSERT compared to PRC200-SS [5] | Potency (rank-order of potency of binding; S = hSERT, N = hNET, D = hDAT) (hSERT, hNET, hDAT) | Potency Range (difference between most potent and least potent binding) (hSERT, hNET, hDAT) [fold] | Ki [6] [µM] | Ki [7] [µM] | Ki [8] [µM] | Ki [2, 11] [µM] | Kd [5, 12] [µM] | Ki [7, 13] [µM] | other results
CNCC(c1ccc2ccccc2c1)C(F)c1ccccc1 (racemic) [MCJ001-F-(±)-RR, (2R,3R/2S,3S)-3-fluoro-N-methyl-2-(naphthalen-2-yl)-3-phenylpropan-1-amine] | 0.25 ± 0.009 | N > S > D | 0.018 ± 0.003 | 0.0039 ± 0.0001 | greater binding at hSERT | S > N > D | 36 | 0.033 ± 0.001 | 0.09 ± 0.007 | 0.0021 ± 0.0005 |  |  |  | Ki [2]: 0.047 ± 0.005 µM; Immobility in TST (counts per 6-minute session) vs saline (male C57BL/6J mice; mice, 5 and 10 mg/kg IP): significantly (P≦0.016) reduced immobility; Mobility in TST (counts per 6-minute session) vs saline (male C57BL/6J mice; [10]): significantly (P≦0.016) increased mobility
CNC[C@H](c1ccc2ccccc2c1)[C@H](OCCCCCO[C@H](c1ccccc1)[C@H](CNC)c1ccc2ccccc2c1)c1ccccc1 [MCJ001-Dimer5-SS, (2S,2′S,3S,3′S)-3,3′-(pentane-1,5-diylbis(oxy))bis(N-methyl-2-(naphthalen-2-yl)-3-phenylpropan-1-amine)] | 0.8 ± 0.3 | S > D > N | 0.014 ± 0.002 |  |  | D > S > N | 1.4 | 0.052 |  | 0.72 | 0.2 ± 0.03 | 0.14 ± 0.03 | 0.15 ± 0.01 | Duration of immobility in TST vs saline (male C57BL/6J mice; mice): except MCJ002-NH2-SS and MCJ001-Dimer5-SS, significantly reduced the time that the animals were immobile; Species selectivity: blocking transport by human vs rat serotonin and dopamine transporters [3]: much more potent at blocking transport by the human serotonin and dopamine transporters
CNC[C@H](c1ccc2ccccc2c1)[C@@H](F)c1ccccc1 [MCJ001-F-RS, (2S,3R)-3-fluoro-N-methyl-2-(naphthalen-2-yl)-3-phenylpropan-1-amine] |  | S > N > D | 0.0035 ± 0.0009 | 0.0028 ± 0.0003 | greater binding at hSERT | N > S > D | 21 | 0.03 ± 0.005 | 0.009 ± 0.0015 | 0.0048 |  |  |  | Ki [1]: 0.058 ± 0.006 µM; Ki [2]: 0.009 ± 0.001 µM; Immobility in TST (counts per 6-minute session) vs saline (male C57BL/6J mice; mice, 1, 2.5, and 5 mg/kg IP, FIG. 10B): significantly (P<0.005) reduced immobility; Mobility in TST (counts per 6-minute session) vs saline (male C57BL/6J mice; mice, 2.5 and 5 mg/kg IP, FIG. 10B): significantly (P<0.005) increased mobility
CNC[C@@H](c1ccc2ccccc2c1)[C@H](F)c1ccccc1 [MCJ001-F-SR, (2R,3S)-3-fluoro-N-methyl-2-(naphthalen-2-yl)-3-phenylpropan-1-amine] | 0.13 ± 0.02 |  | 0.15 | 0.13 ± 0.02 | much more weakly at hNET and hSERT | D > S > N | 12 |  | 0.053 ± 0.012 |  | 0.11 ± 0.02 |  |  | Immobility in TST (counts per 6-minute session) vs saline (male C57BL/6J mice; mice, 10 mg/kg IP, FIG. 10C): significantly (P<0.033) reduced immobility; Mobility in TST (counts per 6-minute session) vs saline (male C57BL/6J mice; mice, 10 mg/kg IP, FIG. 10C): significantly (P≦0.033) increased mobility; Potency (rank-order of potency of binding; S = hSERT, N = hNET, D = hDAT) (hSERT, hNET, hDAT; listed as MCJ001-F—SR): D>S>N
CNC[C@H](c1ccc2ccccc2c1)[C@@H](N=[N+]=[N-])c1ccccc1 [MCJ001-N3-RS, (2S,3R)-3-azido-N-methyl-2-(naphthalen-2-yl)-3-phenylpropan-1-amine] | 0.27 ± 0.05 | N > S > D | 0.048 ± 0.01 |  |  | N > S > D | 3.0 | 0.064 |  | 0.024 ± 0.004 | 0.056 ± 0.003 | 0.124 ± 0.009 | 0.088 ± 0.01 | 
CNC[C@@H](c1ccc2ccccc2c1)[C@H](N=[N+]=[N-])c1ccccc1 [MCJ001-N3-SR, (2R,3S)-3-azido-N-methyl-2-(naphthalen-2-yl)-3-phenylpropan-1-amine] | 2 ± 0.3 | S > D > N | 0.046 ± 0.006 |  |  | S > N > D | 3.8 | 0.077 |  | 1.4 | 0.25 ± 0.02 | 0.38 ± 0.04 | 0.64 ± 0.05 | Species selectivity: blocking transport by human vs rat serotonin and dopamine transporters [3]: much more potent at blocking transport by the human serotonin and dopamine transporters
CNC[C@H](c1ccc2ccccc2c1)[C@H](OC)c1ccccc1 [MCJ001-OMe-SS, (2S,3S)-3-methoxy-N-methyl-2-(naphthalen-2-yl)-3-phenylpropan-1-amine] | 0.046 ± 0.005 | N > S > D | 0.012 ± 0.002 |  |  | N > S > D | 29 | 0.021 ± 0.003 |  | 0.0012 ± 0.0002 | 0.024 ± 0.002 | 0.013 ± 0.002 | 0.0128 ± 0.0009 | Immobility in TST (counts per 6-minute session) vs saline (male C57BL/6J mice; mice, 15 mg/kg orally (gastric gavage), FIG. 10A): significantly (P<0.02) reduced immobility; Immobility in TST (counts per 6-minute session) vs saline (male C57BL/6J mice; mice, 5 and 10 mg/kg IP): significantly (P<0.02) reduced immobility; Mobility in TST (counts per 6-minute session) vs saline (male C57BL/6J mice; [10]): significantly (P<0.02) increased mobility
CN(C)C[C@H](c1ccc2ccccc2c1)[C@H](N)c1ccccc1 [MCJ002-NH2-SS, (2S,3S)-N1,N1-dimethyl-2-(naphthalen-2-yl)-3-phenylpropane-1,3-diamine] |  |  |  |  | greater binding at hSERT | S > D > N | 5.3 |  |  |  |  | 0.0024 ± 0.0003 |  | Duration of immobility in TST vs saline (male C57BL/6J mice; mice): except MCJ002-NH2-SS and MCJ001-Dimer5-SS, significantly reduced the time that the animals were immobile
